The nature of data set [1]: Reducing power on the Somogyi-Nelson's method expressed by DE. It counts as physicochemical. To be noted: d.s.b. On the procedure: The reducing powders of these novel high-purity saccharides were determined on the Somogyi-Nelson's method and expressed by DE.
The nature of data set [2]: Maillard reaction with glycine, absorbance at 480 nm. To be noted: for Coloration degree (480 nm): one % glycine, 10% saccharide, pH 7.0, 100°C., 90 min, 1-cm cell. The class given is physicochemical. The protocol:
A solution, containing one % glycine and 10% of a saccharide preparation PI, P II, P III, P IV or P V in Experiment 4 and 50 mM phosphate buffer (pH 7.0), was kept at 100° C. for 90 min, followed by cooling the resultant solution, and determining for absorbance at a wave length of 480 nm in a 1-cm cell. As a control, maltotriose, maltotetraose, maltopentaose, maltohexaose and maltoheptaose, as a material for the saccharide preparations, were similarly treated as above, and measured for absorbance at a wave length of 480 nm.
A solution, containing one % of glycine, 10% of a high-purity trehalose preparation with a purity of 99.5%, d.s.b., obtained by the method in Experiment 17, and 50 mM phosphate buffer (pH 7.0), was kept at 100° C. for 90 min, followed by cooling the resultant solution and determining the absorbance at a wave length of 480 nm in a 1-cm cell. As a control, glucose and maltose were similarly treated as above, and the resultants were determined for absorbance at a wave length of 480 nm.

The subject of the next data set is glucoamylase. As to the kind of experiment: Enzymatic hydrolysis by glucoamylase. The class given is biochemical. To be noted: for Glucose / Molecular ratio (Glucose/Trehalose) / Trehalose: one unit glucoamylase, pH 4.5, 40°C., 6 hours. The protocol:
Fifty mg aliquots of non-reducing saccharide preparations P I, P II, P III, P IV and P V in Experiment 4 were respectively dissolved in one ml of 50 mM acetate buffer (pH 4.5), admixed with one unit of glucoamylase commercialized by Seikagaku-Kogyo Co., Ltd., Tokyo, Japan, to effect enzymatic hydrolysis at 40° C. for 6 hours. HPLC analysis only detected glucose and trehalose in all resultant mixtures. The percentages and the molecular ratios of glucose to trehalose in each saccharide are in Table 5.

The test system of another data set is β-amylase. Description: Hydrolysis by β-amylase. It counts as biochemical.
A further data set relates to α-amylase. As to the kind of experiment: Hydrolysis by α-amylase derived from pig pancreas. The class given is in vitro ADME. The conditions noted are these: for Saccharide composition of hydrolysate by α-amylase: G1 (glucose) / Saccharide composition of hydrolysate by α-amylase: G2 (maltose) / Saccharide composition of hydrolysate by α-amylase: G3 (maltotriose) / Saccharide composition of hydrolysate by α-amylase: P I / Saccharide composition of hydrolysate by α-amylase: P II: one unit, pH 6.9, 37°C., 18 hours. The protocol: (§1) The enzymatic reaction with the α-amylase was as follows: Dissolve 10 mg of a substrate in one ml of 50 mM phosphate buffer (pH 6.9), mix the resultant solution with one unit of the α-amylase, and incubate the resultant mixture at 37° C. for 18 hours. The enzymatic reaction with the α-glucosidase was conducted under the same conditions as in the case of α-amylase except that 50 mM acetate buffer (pH 4.0) was used as a buffer. The enzymatic reaction using the rat intestinal acetone powder was carried out under the same conditions as in the case of α-amylase except that 50 mM maleate buffer (pH 6.0) was used as a buffer. The saccharide compositions obtained by the α-amylase, α-glucosidase and rat intestinal acetone powder are respectively in Tables 6, 7 and 8.

The test system of a further data set is α-glucosidase. As to the kind of experiment: Hydrolysis by α-glucosidase derived from rice. It counts as biochemical. To be noted: pH 4.0, 37°C., 18 hours. On the procedure:
as §1

A short description of data set [3]: Hydrolysis by rat intestinal acetone powder. It counts as in vitro ADME. The conditions noted are these: pH 6.0, 37°C., 18 hours. The protocol: as §1
Another data set is described as follows: in vivo. To be noted: mouse, in vivo, po. From the text: (§2) By using 7-week old dd-strain mice, the non-reducing saccharide preparation P I, P II, P III, P IV or P V was orally administered to the mice for acute toxicity test.
A further data set concerns mice. As to the kind of experiment: Acute toxicity test (Experiment 8). The conditions noted are these: oral, highest possible doses.
From the text: as §2

Data set [4] addresses T1, trehalose-releasing enzyme (Rhizobium sp. M-11, UniProt Q53238).
T1 construct: M-11 culture
T1 sequence (Q53238 1-596): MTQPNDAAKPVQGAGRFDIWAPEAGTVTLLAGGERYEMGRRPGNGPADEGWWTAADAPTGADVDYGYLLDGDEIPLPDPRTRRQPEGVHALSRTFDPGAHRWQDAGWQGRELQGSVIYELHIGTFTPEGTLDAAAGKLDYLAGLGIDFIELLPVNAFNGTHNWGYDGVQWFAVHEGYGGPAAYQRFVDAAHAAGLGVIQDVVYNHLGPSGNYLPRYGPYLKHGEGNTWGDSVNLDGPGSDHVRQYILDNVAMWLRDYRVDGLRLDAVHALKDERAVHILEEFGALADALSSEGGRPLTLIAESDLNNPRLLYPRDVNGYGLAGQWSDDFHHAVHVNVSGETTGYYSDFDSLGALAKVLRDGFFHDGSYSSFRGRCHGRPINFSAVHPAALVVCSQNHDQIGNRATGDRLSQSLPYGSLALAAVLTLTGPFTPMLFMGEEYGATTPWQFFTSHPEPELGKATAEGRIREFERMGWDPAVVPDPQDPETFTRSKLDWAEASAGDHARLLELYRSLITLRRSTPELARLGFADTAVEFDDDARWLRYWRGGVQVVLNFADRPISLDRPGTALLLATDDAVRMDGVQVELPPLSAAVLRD
As to the kind of experiment: Action of trehalose-releasing enzyme on α-glycosyltrehalose and maltooligosaccharides (Table 13). It counts as biochemical. To be noted: 20% substrate, 2 units/g, 40°C., pH 7.0, 48 hours; label = substrate. On the procedure: An aqueous solution containing 20%, d.s.b., of one of the above 5 non-reducing saccharide preparations, namely α-glycosyltrehalose preparations, was prepared, followed by mixing it with 2 units/g substrate, d.s.b., of the purified trehalose-releasing enzyme obtained in Experiment 15, and subjecting the resultant to an enzymatic reaction at 40° C. and pH 7.0 for 48 hours. The resultant each reaction mixture was desalted, and analyzed for saccharide composition on HPLC using "WAKOBEADS WB-T-330 column", a column of Wako Pure Chemical Industries Ltd., Tokyo, Japan. As a control, a fresh preparation of the same trehalose-releasing enzyme was allowed to act on maltotriose, maltotetraose, maltopentaose, maltohexaose or maltoheptaose, and the resultant each reaction mixture was analyzed for saccharide composition on HPLC.

Experimental findings from patent US5681826A, “Saccharide composition with reduced reducibility, and preparation and uses thereof” (Kabushiki Kaisha Hayashibara Seibutsu Kagaku Kenkyujo, priority 1994, dated 1997) are described below.

For the compound `OC[C@H]1O[C@H](O[C@H]2O[C@H](CO)[C@@H](O[C@H]3O[C@H](CO)[C@@H](O[C@H]4O[C@H](CO)[C@@H](O[C@H]5O[C@H](CO)[C@@H](O[C@H]6O[C@H](CO)[C@@H](O[C@H]7O[C@H](CO)[C@@H](O)[C@H](O)[C@H]7O)[C@H](O)[C@H]6O)[C@H](O)[C@H]5O)[C@H](O)[C@H]4O)[C@H](O)[C@H]3O)[C@H](O)[C@H]2O)[C@H](O)[C@@H](O)[C@@H]1O` [P V, α-maltopentaosyltrehalose], in data set [1], the “DE (reducing power)” value is 0.23. For the same compound, in [2], the “Coloration degree relative to corresponding material maltooligosaccharides” value is on record as 3-6% and the “Coloration degree (480 nm)” value is 0.015. Moreover, in the data set with glucoamylase, the “Hydrolysis by glucoamylase” value was “hydrolyzed into 5 glucose molecules and one trehalose molecule”; the Glucose is given as 72.9%; the “Molecular ratio (Glucose/Trehalose)” value turned out to be 5.11; the Trehalose was found to be 27.1%. In the data set on β-amylase, the “Hydrolysis by β-amylase” value was 2 maltose molecules and one P I molecule. In the data set with α-amylase, the “Saccharide composition of hydrolysate by α-amylase: G1 (glucose)” value (“Saccharide composition … (glucose)” for short) was found to be 1.0, the “Saccharide composition of hydrolysate by α-amylase: G2 (maltose)” value (shortened to “Saccharide composition … (maltose)”) was found to be 8.6, the “Saccharide composition of hydrolysate by α-amylase: G3 (maltotriose)” value (“Saccharide composition … (maltotriose)” below) was found to be 35.3 and the “Saccharide composition of hydrolysate by α-amylase: P I” value worked out at 10.2. Also, the “Saccharide composition of hydrolysate by α-amylase: P II” value (from here on “Saccharide composition … P II”) in the data set with α-amylase stood at 44.9. Besides, in the data set with α-glucosidase, the “Saccharide composition of hydrolysate by α-glucosidase: Glucose” value is given as 71.4%, the “Saccharide composition of hydrolysate by α-glucosidase: Other saccharides” value worked out at 0.3% and the “Saccharide composition of hydrolysate by α-glucosidase: Trehalose” value worked out at 28.3%. In data set [3], the “Saccharide composition of hydrolysate by rat intestinal acetone powder: Glucose” value amounted to 73.4%, the “Saccharide composition of hydrolysate by rat intestinal acetone powder: Other saccharides” value is 0.1% and the “Saccharide composition of hydrolysate by rat intestinal acetone powder: Trehalose” value was 26.5%. Moreover, the LD50 (usually the dose expected to kill half of the subjects tested) in the data set “in vivo” is at least 50000 mg/kg. In the data set with mice, the Mortality entry is “no mouse died”. In [4], the “Percentage of reducing saccharide released (glucose, maltose, maltotriose, maltotetraose or maltopentaose)” value is listed as 70.6% and the “Percentage of trehalose released” value is 29.1%.
As to `OC[C@H]1O[C@H](O[C@H]2O[C@H](CO)[C@@H](O[C@H]3O[C@H](CO)[C@@H](O[C@H]4O[C@H](CO)[C@@H](O[C@H]5O[C@H](CO)[C@@H](O)[C@H](O)[C@H]5O)[C@H](O)[C@H]4O)[C@H](O)[C@H]3O)[C@H](O)[C@H]2O)[C@H](O)[C@@H](O)[C@@H]1O` [P III, α-maltotriosyltrehalose], in data set [1], the “DE (reducing power)” value was 0.10. Also, in data set [2], the “Coloration degree relative to corresponding material maltooligosaccharides” value was 3-6% and the “Coloration degree (480 nm)” value stood at 0.012. Moreover, in the data set on glucoamylase, the “Hydrolysis by glucoamylase” value was “hydrolyzed into 3 glucose molecules and one trehalose molecule”; the Glucose stood at 61.4%; the “Molecular ratio (Glucose/Trehalose)” value is 3.02; the Trehalose is 38.6%. Besides, in the data set with β-amylase, the “Hydrolysis by β-amylase” value is “one maltose molecule and one P I molecule”. Also, in the data set on α-amylase, the “Hydrolysis by α-amylase” value is listed as “hydrolyzed by the α-amylase into lower molecular weight oligosaccharides”, the “Saccharide composition … (glucose)” value is 1.2, the “Saccharide composition … (maltose)” value came to 33.0 and the “Saccharide composition … (maltotriose)” value came to 0. Also, in the data set on α-amylase, the “Saccharide composition of hydrolysate by α-amylase: P I” value amounted to 61.0 and the “Saccharide composition … P II” value was determined as 4.8. Further, in the data set with α-glucosidase, the “Saccharide composition of hydrolysate by α-glucosidase: Glucose” value amounted to 61.7%, the “Saccharide composition of hydrolysate by α-glucosidase: Other saccharides” value was 0.2% and the “Saccharide composition of hydrolysate by α-glucosidase: Trehalose” value came out at 38.1%. In addition, in [3], the “Saccharide composition of hydrolysate by rat intestinal acetone powder: Glucose” value amounted to 62.0%, the “Saccharide composition of hydrolysate by rat intestinal acetone powder: Other saccharides” value is 0.4% and the “Saccharide composition of hydrolysate by rat intestinal acetone powder: Trehalose” value was 37.6%. In “in vivo”, this compound displayed an LD50 of at least 50000 mg/kg. In addition, in the data set on mice, the Mortality entry is on record as “no mouse died”. In data set [4], the “Percentage of reducing saccharide released (glucose, maltose, maltotriose, maltotetraose or maltopentaose)” value is recorded as 60.0% and the “Percentage of trehalose released” value stood at 39.5%.
Take `OC[C@H]1O[C@H](O[C@H]2O[C@H](CO)[C@@H](O[C@H]3O[C@H](CO)[C@@H](O)[C@H](O)[C@H]3O)[C@H](O)[C@H]2O)[C@H](O)[C@@H](O)[C@@H]1O` [P I, α-glucosyltrehalose]: the “DE (reducing power)” value in data set [1] worked out at 0.83. Besides, in data set [2], the “Coloration degree relative to corresponding material maltooligosaccharides” value is reported as 3-6% and the “Coloration degree (480 nm)” value was determined as 0.027. In the data set with glucoamylase, the “Hydrolysis by glucoamylase” value was “hydrolyzed into one glucose molecule and one trehalose molecule”; the Glucose is 36.2%; the “Molecular ratio (Glucose/Trehalose)” value was 1.07; the Trehalose is listed as 63.8%. Further, the “Hydrolysis by β-amylase” value in the data set with β-amylase is listed as “not hydrolyzed”. Moreover, in the data set on α-amylase, the “Hydrolysis by α-amylase” value is recorded as “not substantially hydrolyzed”, the “Saccharide composition … (glucose)” value worked out at 0, the “Saccharide composition … (maltose)” value was 0.4 and the “Saccharide composition … (maltotriose)” value came out at 2.3. In the data set with α-amylase, the “Saccharide composition of hydrolysate by α-amylase: P I” value was determined as 97.3 and the “Saccharide composition … P II” value was 0. In the data set with α-glucosidase, the “Saccharide composition of hydrolysate by α-glucosidase: Glucose” value stood at 36.5%, the “Saccharide composition of hydrolysate by α-glucosidase: Other saccharides” value is listed as 0.5% and the “Saccharide composition of hydrolysate by α-glucosidase: Trehalose” value is 63.0%. In addition, in data set [3], the “Saccharide composition of hydrolysate by rat intestinal acetone powder: Glucose” value is 37.2%, the “Saccharide composition of hydrolysate by rat intestinal acetone powder: Other saccharides” value is 0.4% and the “Saccharide composition of hydrolysate by rat intestinal acetone powder: Trehalose” value is 62.4%. Also, the LD50 in “in vivo” was at least 50000 mg/kg. The Mortality result in the data set with mice is “no mouse died”. In [4], the “Percentage of reducing saccharide released (glucose, maltose, maltotriose, maltotetraose or maltopentaose)” value came out at 6.5% and the “Percentage of trehalose released” value is given as 17.5%.
